Literature values in paper PMC9516332 (Frontiers in Oncology, 2022).
Read-outs that look alike come from different tables or passages of the source.

Assays:
Conditions in all cases: cited from earlier work
[1] = molecular target: panel of 255 wild-type kinases (Homo sapiens, UniProt P16591)
[2] = molecular target: panel of 255 wild-type kinases (Homo sapiens, UniProt Q13554)
[3] = molecular target: panel of 255 wild-type kinases (Homo sapiens, UniProt Q15375)
[4] = molecular target: T1, panel of 255 wild-type kinases (Homo sapiens, UniProt Q16566)
T1 sequence (Q16566 1-473): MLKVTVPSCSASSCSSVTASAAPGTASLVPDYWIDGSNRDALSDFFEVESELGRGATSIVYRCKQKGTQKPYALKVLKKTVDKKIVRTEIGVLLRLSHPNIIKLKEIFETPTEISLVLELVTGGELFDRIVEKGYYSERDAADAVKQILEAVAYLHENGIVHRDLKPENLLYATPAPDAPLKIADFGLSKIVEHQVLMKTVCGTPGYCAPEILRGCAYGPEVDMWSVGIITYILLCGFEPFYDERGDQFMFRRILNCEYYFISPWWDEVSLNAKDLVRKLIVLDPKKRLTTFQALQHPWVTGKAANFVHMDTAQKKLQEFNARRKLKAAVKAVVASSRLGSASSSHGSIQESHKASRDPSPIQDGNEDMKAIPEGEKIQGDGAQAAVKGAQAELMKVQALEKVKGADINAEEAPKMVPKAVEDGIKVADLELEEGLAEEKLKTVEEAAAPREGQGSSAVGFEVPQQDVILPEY

[5] = molecular target: panel of 255 wild-type kinases (Homo sapiens, UniProt Q8IY84)
[6] = molecular target: T2, panel of 255 wild-type kinases (Homo sapiens, UniProt Q92630)
T2 sequence (Q92630 1-601): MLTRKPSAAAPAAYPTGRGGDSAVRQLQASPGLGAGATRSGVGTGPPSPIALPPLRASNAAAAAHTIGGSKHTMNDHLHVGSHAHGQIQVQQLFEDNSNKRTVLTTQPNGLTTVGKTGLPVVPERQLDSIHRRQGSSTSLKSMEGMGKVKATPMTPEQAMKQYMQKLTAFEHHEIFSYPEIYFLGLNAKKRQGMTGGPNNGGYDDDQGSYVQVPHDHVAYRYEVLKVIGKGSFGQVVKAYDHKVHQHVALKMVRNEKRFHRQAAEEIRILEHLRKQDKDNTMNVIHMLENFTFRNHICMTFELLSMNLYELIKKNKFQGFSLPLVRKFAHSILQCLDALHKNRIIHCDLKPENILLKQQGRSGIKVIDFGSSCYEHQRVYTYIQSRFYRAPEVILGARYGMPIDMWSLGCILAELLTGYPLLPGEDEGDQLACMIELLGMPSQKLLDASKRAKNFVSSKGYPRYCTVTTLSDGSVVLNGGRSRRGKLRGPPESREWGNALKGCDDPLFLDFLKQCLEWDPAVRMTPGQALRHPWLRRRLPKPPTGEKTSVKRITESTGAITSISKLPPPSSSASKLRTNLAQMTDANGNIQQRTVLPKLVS

[7] = molecular target: panel of 255 wild-type kinases (Homo sapiens, UniProt Q9H0K1)
[8] = molecular target: T3, panel of 255 wild-type kinases (Homo sapiens, UniProt Q9HBY8)
T3 sequence (Q9HBY8 1-367): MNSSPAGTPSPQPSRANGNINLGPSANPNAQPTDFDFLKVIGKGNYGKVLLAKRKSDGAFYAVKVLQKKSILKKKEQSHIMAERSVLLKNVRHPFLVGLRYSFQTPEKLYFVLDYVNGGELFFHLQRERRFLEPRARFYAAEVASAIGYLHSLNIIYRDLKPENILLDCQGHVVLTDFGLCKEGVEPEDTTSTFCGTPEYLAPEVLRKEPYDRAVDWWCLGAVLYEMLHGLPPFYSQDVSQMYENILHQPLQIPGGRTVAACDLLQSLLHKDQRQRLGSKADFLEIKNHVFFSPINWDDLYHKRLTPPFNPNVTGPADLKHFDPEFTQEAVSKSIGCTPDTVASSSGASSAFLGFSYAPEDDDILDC

[9] = kinase FER, 1 µmol/L single concentration, ref DOI: 10.1158/1535-7163.MCT-18-0877
[10] = CaMK2β kinase assay, 1 µmol/L single concentration, ref DOI: 10.1158/1535-7163.MCT-18-0877
[11] = kinase EPHA7, 1 µmol/L single concentration, ref DOI: 10.1158/1535-7163.MCT-18-0877
[12] = CaMK4 kinase assay, 1 µmol/L single concentration, ref DOI: 10.1158/1535-7163.MCT-18-0877
[13] = NIM1K, 1 µmol/L single concentration, ref DOI: 10.1158/1535-7163.MCT-18-0877
[14] = kinase DYRK2, 1 µmol/L single concentration, ref DOI: 10.1158/1535-7163.MCT-18-0877
[15] = kinase QIK, 1 µmol/L single concentration, ref DOI: 10.1158/1535-7163.MCT-18-0877
[16] = kinase SGK2, 1 µmol/L single concentration, ref DOI: 10.1158/1535-7163.MCT-18-0877
[17] = kinase FER, 1 µmol/L single concentration, ref DOI: 10.1371/journal.pone.0092146
[18] = kinase DYRK2, 1 µmol/L single concentration, ref DOI: 10.1371/journal.pone.0092146
[19] = kinase QIK, 1 µmol/L single concentration, ref DOI: 10.1371/journal.pone.0092146
[20] = kinase SGK2, 1 µmol/L single concentration, ref DOI: 10.1371/journal.pone.0092146
[21] = CaMK2β kinase assay, 1 µmol/L single concentration, ref DOI: 10.1371/journal.pone.0092146
[22] = kinase EPHA7, 1 µmol/L single concentration, ref DOI: 10.1371/journal.pone.0092146
[23] = CaMK4 kinase assay, 1 µmol/L single concentration, ref DOI: 10.1371/journal.pone.0092146

Structure (SMILES)	%-inhibition at 1 µmol/L, FER [1, 9] [%]	%-inhibition CaMK2β [2, 10] [%]	%-inhibition at 1 µmol/L, EPHA7 [3, 11] [%]	%-inhibition CaMK4 [4, 12] [%]	%-inhibition, NIM1K [5, 13] [%]	%-inhibition at 1 µmol/L, DYRK2 [6, 14] [%]	%-inhibition at 1 µmol/L, QIK [7, 15] [%]	%-inhibition at 1 µmol/L, SGK2 [8, 16] [%]	%-inhibition at 1 µmol/L, FER [1, 17] [%]	%-inhibition at 1 µmol/L, DYRK2 [6, 18] [%]	%-inhibition at 1 µmol/L, QIK [7, 19] [%]	%-inhibition at 1 µmol/L, SGK2 [8, 20] [%]	further results
CC#CC(=O)N1CCC[C@H]1c1nc(-c2ccc(C(=O)Nc3ccccn3)cc2)c2c(N)nccn12 [acalabrutinib]	-2.54	-1.09	-3.54	-8.42	-7	-16	-0.215	-19					
CCc1cc2c(cc1N1CCC(N3CCOCC3)CC1)C(C)(C)c1[nH]c3cc(C#N)ccc3c1C2=O [alectinib]	66	2.14	1.58	-4	-2.13	6	3	-5					
COc1cc(N2CCC(N3CCN(C)CC3)CC2)ccc1Nc1ncc(Cl)c(Nc2ccccc2P(C)(C)=O)n1 [brigatinib]													%-inhibition at 1 µmol/L, FER [1]: 102%; %-inhibition CaMK2β [2]: 64%; %-inhibition at 1 µmol/L, EPHA7 [3]: 21%; %-inhibition CaMK4 [4]: 13%; %-inhibition, NIM1K [5]: 3%; %-inhibition at 1 µmol/L, DYRK2 [6]: 29%; %-inhibition at 1 µmol/L, QIK [7]: 100%; %-inhibition at 1 µmol/L, SGK2 [8]: -8%
Cc1cc(Nc2ncc(Cl)c(Nc3ccccc3S(=O)(=O)C(C)C)n2)c(OC(C)C)cc1C1CCNCC1 [ceritinib]	100	23	4.64	30	-1.37	6.41	7.41	-5.59					
O=C(c1ccc(F)c(F)c1Nc1ccc(I)cc1F)N1CC(O)([C@@H]2CCCCN2)C1 [cobimetinib]	4	-0.487	1.75	2	-3.67	-2.74	2.37	7					
C[C@@H](Oc1cc(-c2cnn(C3CCNCC3)c2)cnc1N)c1c(Cl)ccc(F)c1Cl [crizotinib]									90	10	38	-2.31	
CC(C)(C)c1nc(-c2cccc(NS(=O)(=O)c3c(F)cccc3F)c2F)c(-c2ccnc(N)n2)s1 [dabrafenib]									22	6	80	-7.58	%-inhibition CaMK2β [2, 21]: -0.277%; %-inhibition at 1 µmol/L, EPHA7 [3, 22]: 13%; %-inhibition CaMK4 [4, 23]: 78%
C=CC(=O)N1CCC[C@@H](n2nc(-c3ccc(Oc4ccccc4)cc3)c3c(N)ncnc32)C1 [ibrutinib]		-2.56	7	3	-2.33	-1.83	4.7						
CO[C@@H]1[C@H](N(C)C(=O)c2ccccc2)C[C@H]2O[C@]1(C)n1c3ccccc3c3c4c(c5c6ccccc6n2c5c31)C(=O)NC4 [midostaurin]	101		19	3.79	1.15			-0.775					
C=CC(=O)Nc1cc(Nc2nccc(-c3cn(C)c4ccccc34)n2)c(OC)cc1N(C)CCN(C)C [osimertinib]	78	5	2.35	2.5	-10	45	33	26					
CC(=O)Nc1cccc(-n2c(=O)n(C3CC3)c(=O)c3c(Nc4ccc(I)cc4F)n(C)c(=O)c(C)c32)c1 [trametinib]									4.28	-0.0865	-4.66	-7	%-inhibition CaMK2β [2, 21]: 0.738%; %-inhibition at 1 µmol/L, EPHA7 [3, 22]: -5%; %-inhibition CaMK4 [4, 23]: -5.45%
CCCS(=O)(=O)Nc1ccc(F)c(C(=O)c2c[nH]c3ncc(-c4ccc(Cl)cc4)cc23)c1F [vemurafenib]									11	1	6	2.66	%-inhibition CaMK2β [2, 21]: -6.64%; %-inhibition at 1 µmol/L, EPHA7 [3, 22]: -0.639%; %-inhibition CaMK4 [4, 23]: -2.38%
